Laboratory results as given in patent US20010038824A1, “Intranasal cyclic peptide formulations” (priority 2000, published 2001).
Numbered stars: 1 amine (or outer) side, 2 acyl side, 3 side chain; on linkers, the order of the positions; unused ones are H or OH. Bridge positions count the residues as written; N and C are the ends. Square brackets hold non-standard residues; d marks the D form. Peptide text beside a SMILES is read from it. * marks the point of attachment. ξ: configuration not given here. pTerphenylCO(4''-OnC5H11) = CCCCCOc1ccc(-c2ccc(-c3ccc(C(=O)*)cc3)cc2)cc1; Orn(4R-OH,5R-OH) = O=C([C@H](C[C@@H](O)[C@@H](O)N[*:3])N[*:1])[*:2]; Hexadecanoyl(3R-amino) = CCCCCCCCCCCCC[C@H](CC(=O)[*:2])N[*:1]; hTyr(3S-OH,4S-OH) = N[C@H](C(=O)O)[C@H](O)[C@@H](O)c1ccc(O)cc1; X5 = CC(C)CCCOc1ccc(-c2ccc(CC[C@H](CC(=O)[*:1])N[*:2])cc2)cc1; X11 = CCCCCOc1ccc(-c2ccc(CC[C@H](CC(=O)[*:1])N[*:2])cc2)cc1; X8 = CCCCCCCCCOc1ccc2cc(CC[C@H](CC(=O)[*:1])N[*:2])ccc2c1; Orn(Nα,Nα-(2-aminoethyl)2) = NCCC[C@@H](C(=O)*)N(CCN)CCN; NαBis(2-aminoethyl)dOrn = NCCC[C@H](C(=O)*)N(CCN)CCN; ξTyr(3-NO2) = NC(Cc1ccc(O)c([N+](=O)[O-])c1)C(=O)O; Pro(3S-OH,4S-Me) = C[C@H]1CN[C@H](C(=O)O)[C@H]1O; X15 = CCCCCCCCCCCCCCC[C@H](CC(=O)[*:2])N(C)[*:1]; X16 = NCC(=O)Nc1cc(CC(N[*:1])C(=O)[*:2])ccc1O; X4 = CCCCCCCCCCCCC[C@H](CC(=O)[*:1])O[*:2]; X3 = NCCCN(CCCC(N[*:1])C(=O)[*:2])[*:3]; X2 = NC(=O)CC(O)C(N[*:1])C(=O)[*:2]; X12 = CN(C)CCCC(N[*:1])C(=O)[*:2]; Hyp = O=C(O)[C@@H]1C[C@@H](O)CN1; X1 = O=C(C1C(O)CCN1[*:1])[*:2]; ξOrn(3-OH) = NCCC(O)C(N)C(=O)O; ξY = NC(Cc1ccc(O)cc1)C(=O)O; X14 = NCCCNC(CCCN)C(=O)*; X13 = CCCCCCCCCCCCCCCN*; ξHyp = O=C(O)C1CC(O)CN1; ξOrn = NCCCC(N)C(=O)O; ξT = CC(O)C(N)C(=O)O; ξV = CC(C)C(N)C(=O)O; ξP = O=C(O)C1CCCN1; ξA = CC(N)C(=O)O

How the values were obtained:
Assay type in all cases: cell-based
mouse hepatocytes = experiment: In vitro hepatotoxicity test; details: mouse hepatocyte monolayers, 1 day exposure, morphological evaluation
Text: The mouse hepatocytes were isolated by a collagenase digestion and cultured in microtest plates. The hepatocyte monolayers were exposed to the test Aerothricins in the culture system for 1 day. After the culture period, the hepatocytes were observed under a microscope and evaluated morphologically. The degree of the morphological alteration (degeneration) of the hepatocytes by the test Aerothricins were compared with WF11243 and LY303366.

[1] = tested on: Aspegillus fumigatus CF1003; experiment: In vitro antifungal activity, broth micro-dilution; details: YNB medium with 0.2% agarose, 1-2 days at 35° C.
Procedure: (§1) The in vitro antifungal activities of the representative Aerothricins of the present study were evaluated by determining the 50% inhibitory concentration (IC50), which was calculated as the lowest concentration of an antifungal to inhibit the growth of fungus to […] turbidity compared with the drug-free control growth spectrophotometrically.
(§2) The IC50 values were determined by the broth micro-dilution procedure based on NCCLS Approved Standard with the following minor modifications (National Committee for Clinical Laboratory Standards. (1997) Reference method for broth dilution antifungal susceptibility testing for yeasts. Approved standard. Document M27-A). Yeast Nitrogen Base (YNB; Difco Lab.) supplemented with 1% glucose and 0.25% K2HPO4 was used as testing medium for yeast, the same medium solidified with 0.2% low melting point agarose (BRL) was used for filamentous fungi. Inoculum size was 1-3×10^4 cells/ml, and incubation was performed for 1-2 days at 35° C.

Candida albicans CY1002 = experiment: In vitro antifungal activity, broth micro-dilution; details: YNB medium, 1-2 days at 35° C.
Procedure: as §1, §2

Fusarium solani CF1088 = experiment: In vitro antifungal activity, broth micro-dilution; details: YNB medium with 0.2% agarose, 1-2 days at 35° C.
Procedure: as §1, §2

Structure (SMILES)	Cytotoxicity to hepatocyte (mouse hepatocytes) [µg/mL]	In vitro Antifungal activity, IC50, Aspegillus fumigatus CF1003 [1] [µg/mL]	In vitro Antifungal activity, IC50, Candida albicans CY1002 (Candida albicans CY1002) [µg/mL]	In vitro Antifungal activity, IC50, Fusarium solani CF1088 (Fusarium solani CF1088) [µg/mL]
CCCCCCCCCCCCC[C@@H]1CC(=O)NC(C(C)O)C(=O)NC(C)C(=O)NC(Cc2ccc(O)cc2)C(=O)NC(C(C)C)C(=O)N2CC(O)CC2C(=O)NC(C(C)O)C(=O)NC(C(C)O)C(=O)N2CCC(O)C2C(=O)NC(C(O)CC(N)=O)C(=O)NCC(=O)NC(C(C)O)C(=O)NC(CCCNC(=O)C2CCCN2)C(=O)O1 (some centres unmarked) [Aerothricin 15] ([ξT][ξA][ξY][ξV][ξHyp][ξT][ξT][X1][X2]G[ξT][ξOrn](ξP); linker N-C via X4)	>100			
CCCCCCCCCCCCC[C@@H]1CC(=O)NC(C(C)O)C(=O)NC(C)C(=O)NC(Cc2ccc(O)cc2)C(=O)NC(C(C)C)C(=O)N2CC(O)CC2C(=O)NC(C(C)O)C(=O)NC(C(C)O)C(=O)N2CCC(O)C2C(=O)NC(C(O)CC(N)=O)C(=O)NCC(=O)NC(C(C)O)C(=O)NC(CCCN(CCCN)C(=O)C(CCCN)NCCCN)C(=O)O1 (some centres unmarked) [Aerothricin 136] ([ξT][ξA][ξY][ξV][ξHyp][ξT][ξT][X1][X2]G[ξT][X3](X14); linker N-C via X4)		0.28	0.20	0.04
CCCCCOc1ccc(-c2ccc(-c3ccc(C(=O)N[C@H]4C[C@@H](O)[C@@H](O)NC(=O)[C@@H]5[C@@H](O)[C@@H](C)CN5C(=O)[C@H]([C@@H](C)O)NC(=O)[C@H]([C@H](O)[C@@H](O)c5ccc(O)cc5)NC(=O)[C@@H]5C[C@@H](O)CN5C(=O)[C@H]([C@@H](C)O)NC4=O)cc3)cc2)cc1 [LY303366, reference compound] ({pTerphenylCO(4''-OnC5H11)}-[Orn(4R-OH,5R-OH)]T[Hyp][hTyr(3S-OH,4S-OH)]T[Pro(3S-OH,4S-Me)]; lactam 1-C)	10			
CCCCCCCCCCCCC[C@@H]1CC(=O)NC(C(C)O)C(=O)NC(C)C(=O)NC(Cc2ccc(O)cc2)C(=O)NC(C(C)C)C(=O)N2CC(O)CC2C(=O)NC(C(C)O)C(=O)NC(C(C)O)C(=O)N2CCC(O)C2C(=O)NC(C(O)CC(N)=O)C(=O)NCC(=O)NC(C(C)O)C(=O)NC(CCCN(CCCN)C(=O)[C@H](CCCN)N(CCN)CCN)C(=O)O1 (some centres unmarked) [Aerothricin 134] ([ξT][ξA][ξY][ξV][ξHyp][ξT][ξT][X1][X2]G[ξT][X3](Orn(Nα,Nα-(2-aminoethyl)2)); linker N-C via X4)	>100			
CCCCCCCCCCCCC[C@@H]1CC(=O)NC(C(C)O)C(=O)NC(C)C(=O)NC(Cc2ccc(O)c(NC(=O)CN)c2)C(=O)NC(C(C)C)C(=O)N2CC(O)CC2C(=O)NC(C(C)O)C(=O)NC(C(C)O)C(=O)N2CCC(O)C2C(=O)NC(C(O)CC(N)=O)C(=O)NCC(=O)NC(C(C)O)C(=O)NC(CCCNC(=O)CN)C(=O)O1 (some centres unmarked) [Aerothricin 21] ([ξT][ξA][X16][ξV][ξHyp][ξT][ξT][X1][X2]G[ξT][ξOrn](Gly); linker N-C via X4)	>100			
CCCCCCCCCCCCCCCNC(=O)[C@@H]1CC(=O)NC(C(C)O)C(=O)NC(C)C(=O)NC(Cc2ccc(O)c([N+](=O)[O-])c2)C(=O)NC(C(C)C)C(=O)N2CC(O)CC2C(=O)NC(C(C)O)C(=O)NC(C(C)O)C(=O)N2CCC(O)C2C(=O)NC(C(O)CC(N)=O)C(=O)NCC(=O)NC(C(C)O)C(=O)NC(CCCN)C(=O)N1 (stereo partly drawn) [Aerothricin 77] ([ξT][ξA][ξTyr(3-NO2)][ξV][ξHyp][ξT][ξT][X1][X2]G[ξT][ξOrn]D-X13; lactam N-13)		0.10	0.13	0.67
CCCCCCCCCCCCC[C@@H]1CC(=O)NC(C(C)O)C(=O)NC(C)C(=O)NC(Cc2ccc(O)cc2)C(=O)NC(C(C)C)C(=O)N2CC(O)CC2C(=O)NC(C(C)O)C(=O)NC(C(C)O)C(=O)N2CCC(O)C2C(=O)NC(C(O)CCN)C(=O)NCC(=O)NC(C(C)O)C(=O)NC(CCCN)C(=O)O1 (some centres unmarked) [Aerothricin 31] ([ξT][ξA][ξY][ξV][ξHyp][ξT][ξT][X1][ξOrn(3-OH)]G[ξT][ξOrn]; linker N-C via X4)		0.49	0.07	0.70
CCCCCOc1ccc(-c2ccc(CC[C@@H]3CC(=O)NC(C(C)O)C(=O)NC(C)C(=O)NC(Cc4ccc(O)c([N+](=O)[O-])c4)C(=O)NC(C(C)C)C(=O)N4CC(O)CC4C(=O)NC(C(C)O)C(=O)NC(C(C)O)C(=O)N4CCC(O)C4C(=O)NC(C(O)CC(N)=O)C(=O)NCC(=O)NC(C(C)O)C(=O)NC(CCCN)C(=O)N3)cc2)cc1 (some centres unmarked) [Aerothricin 54] ([ξT][ξA][ξTyr(3-NO2)][ξV][ξHyp][ξT][ξT][X1][X2]G[ξT][ξOrn]; linker N-C via X11)		0.17	0.15	0.74
CCCCCCCCCCCCC[C@@H]1CC(=O)NC(C(C)O)C(=O)NC(C)C(=O)NC(Cc2ccc(O)c([N+](=O)[O-])c2)C(=O)NC(C(C)C)C(=O)N2CC(O)CC2C(=O)NC(C(C)O)C(=O)NC(C(C)O)C(=O)N2CCC(O)C2C(=O)NC(C(O)CC(N)=O)C(=O)NCC(=O)NC(C(C)O)C(=O)NC(CCCN)C(=O)N1 (stereo partly drawn) [Aerothricin 39] (cyclo(G[ξT][ξOrn][Hexadecanoyl(3R-amino)][ξT][ξA][ξTyr(3-NO2)][ξV][ξHyp][ξT][ξT][X1][X2]))		0.17	0.09	0.70
CCCCCCCCCCCCC[C@@H]1CC(=O)NC(C(C)O)C(=O)NC(C)C(=O)NC(Cc2ccc(O)cc2)C(=O)NC(C(C)C)C(=O)N2CC(O)CC2C(=O)NC(C(C)O)C(=O)NC(C(C)O)C(=O)N2CCC(O)C2C(=O)NC(C(O)CC(N)=O)C(=O)NCC(=O)NC(C(C)O)C(=O)NC(CCCN(CCCN)C(=O)[C@@H](CCCN)N(CCN)CCN)C(=O)O1 (some centres unmarked) [Aerothricin 135] ([ξT][ξA][ξY][ξV][ξHyp][ξT][ξT][X1][X2]G[ξT][X3](NαBis(2-aminoethyl)dOrn); linker N-C via X4)	>100			
CCCCCCCCCCCCC[C@@H]1CC(=O)NC(C(C)O)C(=O)NC(C)C(=O)NC(Cc2ccc(OC)cc2)C(=O)NC(C(C)C)C(=O)N2CC(O)CC2C(=O)NC(C(C)O)C(=O)NC(C(C)O)C(=O)N2CCC(O)C2C(=O)NC(C(O)CC(N)=O)C(=O)NCC(=O)NC(C(C)O)C(=O)NC(CCCN(C)C)C(=O)O1 (some centres unmarked) [Aerothricin 12] ([ξT][ξA][ξY](Me)[ξV][ξHyp][ξT][ξT][X1][X2]G[ξT][X12]; linker N-C via X4)		0.10	0.09	2.20
CCCCCCCCCCOc1ccc(CC[C@@H]2CC(=O)NC(C(C)O)C(=O)NC(C)C(=O)NC(Cc3ccc(O)cc3)C(=O)NC(C(C)C)C(=O)N3CC(O)CC3C(=O)NC(C(C)O)C(=O)NC(C(C)O)C(=O)N3CCC(O)C3C(=O)NC(C(O)CC(N)=O)C(=O)NCC(=O)NC(C(C)O)C(=O)NC(CCCN)C(=O)N2)cc1 (single isomer, unassigned) [Aerothricin 47]	>100			
CCCCCCCCCCCCCCCNC(=O)[C@@H]1CC(=O)NC(C(C)O)C(=O)NC(C)C(=O)NC(Cc2ccc(O)cc2)C(=O)NC(C(C)C)C(=O)N2CC(O)CC2C(=O)NC(C(C)O)C(=O)NC(C(C)O)C(=O)N2CCC(O)C2C(=O)NC(C(O)CC(N)=O)C(=O)NCC(=O)NC(C(C)O)C(=O)NC(CCCN(C)C)C(=O)N1 (stereo partly drawn) [Aerothricin 75] ([ξT][ξA][ξY][ξV][ξHyp][ξT][ξT][X1][X2]G[ξT][X12]D-X13; lactam N-13)		0.10	0.15	1.40
CC(C)CCCOc1ccc(-c2ccc(CC[C@@H]3CC(=O)NC(C(C)O)C(=O)NC(C)C(=O)NC(Cc4ccc(O)cc4)C(=O)NC(C(C)C)C(=O)N4CC(O)CC4C(=O)NC(C(C)O)C(=O)NC(C(C)O)C(=O)N4CCC(O)C4C(=O)NC(C(O)CC(N)=O)C(=O)NCC(=O)NC(C(C)O)C(=O)NC(CCCN)C(=O)N3)cc2)cc1 (some centres unmarked) [Aerothricin 45] ([ξT][ξA][ξY][ξV][ξHyp][ξT][ξT][X1][X2]G[ξT][ξOrn]; linker N-C via X5)	>100			
CCCCCCCCCCCCCCC[C@@H]1CC(=O)NC(C(C)O)C(=O)NC(C)C(=O)NC(Cc2ccc(O)cc2)C(=O)NC(C(C)C)C(=O)N2CC(O)CC2C(=O)NC(C(C)O)C(=O)NC(C(C)O)C(=O)N2CCC(O)C2C(=O)NC(C(O)CC(N)=O)C(=O)NCC(=O)NC(C(C)O)C(=O)NC(CCCN)C(=O)N1C (some centres unmarked) [Aerothricin 95] (cyclo(G[ξT][ξOrn][X15][ξT][ξA][ξY][ξV][ξHyp][ξT][ξT][X1][X2]))		0.10	0.14	0.74
CCCCCCCCCOc1ccc2cc(CC[C@@H]3CC(=O)NC(C(C)O)C(=O)NC(C)C(=O)NC(Cc4ccc(O)cc4)C(=O)NC(C(C)C)C(=O)N4CC(O)CC4C(=O)NC(C(C)O)C(=O)NC(C(C)O)C(=O)N4CCC(O)C4C(=O)NC(C(O)CC(N)=O)C(=O)NCC(=O)NC(C(C)O)C(=O)NC(CCCN)C(=O)N3)ccc2c1 (some centres unmarked) [Aerothricin 53] ([ξT][ξA][ξY][ξV][ξHyp][ξT][ξT][X1][X2]G[ξT][ξOrn]; linker N-C via X8)	>100			
